In publication PMC9849758, “Chemically diverse activity-based probes with unexpected inhibitory mechanisms targeting trypsin-like serine proteases” (Frontiers in Chemistry, 2023):
Where a name gives a salt, the structure may show the parent alone. Read-outs that look alike come from different tables or passages of the source.

Legend:
Assay in all cases: IC50 determination, spectrophotometric protease assay
Assay type in all cases: biochemical
[1] = target: T1, β-tryptase (recombinant tryptase β-2) (Homo sapiens, UniProt P20231)
T1 construct: purchased EnzoLife Sciences
Method: (§1) The IC50 values were determined using a spectrophotometric assay. All the experiments were conducted in duplicate. The readout consisted of evaluating the protease-mediated release of the chromophore para-nitroaniline (pNA) or fluorophore 7-amino-4-methyl coumarin (AMC) moieties from the respective substrates. Enzymatic activity was measured for 30 min at 37°C. All compounds were initially screened at three concentrations (10, 1, and .1 μM) to estimate the range of the IC50 value. Those which were able to reduce protease activity by at least 50% at a concentration of 10 μM were submitted to an exact IC50 determination. […] A third independent experiment was performed when the standard deviation of the two independent experiments was higher than […]. IC50 values were obtained by fitting the data with the four-parameter logistics equation using GraphPad Prism 9.
(§2) The conditions for each protease are described as follows, the concentration of substrate used was at the corresponding Km.

[2] = target: T2, Thrombin (recombinant thrombin) (Homo sapiens, UniProt P00734)
T2 construct: purchased R&D
Method: as §1, §2

[3] = target: T3, uPA (recombinant urokinase plasminogen activator) (Homo sapiens, UniProt P00749)
T3 construct: purchased HYPHEN BioMed
Method: as §1, §2

[4] = target: T4, Trypsin-3 (recombinant trypsin-3) (Homo sapiens, UniProt P35030); conditions: for Trypsin-3 IC50: alkyne probes
T4 construct: purchased R&D
T4 sequence (P35030 1-304): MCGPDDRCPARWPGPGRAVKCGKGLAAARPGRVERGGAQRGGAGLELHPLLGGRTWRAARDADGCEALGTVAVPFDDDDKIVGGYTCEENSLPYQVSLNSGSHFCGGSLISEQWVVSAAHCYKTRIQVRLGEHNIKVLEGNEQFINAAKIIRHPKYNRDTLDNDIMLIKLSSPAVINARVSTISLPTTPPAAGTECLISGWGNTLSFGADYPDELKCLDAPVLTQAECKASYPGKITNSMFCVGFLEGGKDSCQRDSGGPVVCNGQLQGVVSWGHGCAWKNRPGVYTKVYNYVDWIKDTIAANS
Method: as §1, §2

[5] = target: T5, Neutrophil Elastase (recombinant neutrophil elastase) (Homo sapiens, UniProt P08246); conditions: for NE IC50: alkyne probes
T5 construct: purchased Enzo LifeSciences
T5 sequence (P08246 30-267): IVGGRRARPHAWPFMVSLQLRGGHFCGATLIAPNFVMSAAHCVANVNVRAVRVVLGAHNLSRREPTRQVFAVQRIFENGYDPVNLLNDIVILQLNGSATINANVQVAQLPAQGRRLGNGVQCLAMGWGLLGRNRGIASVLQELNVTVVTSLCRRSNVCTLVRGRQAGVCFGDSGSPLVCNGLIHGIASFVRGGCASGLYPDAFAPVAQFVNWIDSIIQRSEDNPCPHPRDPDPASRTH
Method: as §1, §2

[6] = target: T6, Cathepsin G (cathepsin G human neutrophil) (Homo sapiens, UniProt P08311); conditions: for CatG IC50: alkyne probes
T6 construct: Cathepsin G (cathepsin G human neutrophil, Sigma-Aldrich); purchased Sigma-Aldrich; host or cells: human neutrophil
T6 sequence (P08311 21-255): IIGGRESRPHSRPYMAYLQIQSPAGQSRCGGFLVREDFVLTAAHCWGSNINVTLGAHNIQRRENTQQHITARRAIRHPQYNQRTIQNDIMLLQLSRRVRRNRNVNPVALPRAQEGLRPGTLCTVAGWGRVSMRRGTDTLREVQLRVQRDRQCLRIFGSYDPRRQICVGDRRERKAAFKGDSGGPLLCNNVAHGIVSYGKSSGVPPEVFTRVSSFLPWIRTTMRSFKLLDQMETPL
Method: as §1, §2

[7] = target: T7, TLCK-treated pancreatic bovine chymotrypsin (Bos taurus, UniProt P00766); conditions: for ChTryp IC50: alkyne probes
T7 construct: TLCK-treated pancreatic bovine chymotrypsin (Sigma-Aldrich); purchased Sigma-Aldrich; host or cells: bovine pancreas
Method: as §1, §2

[8] = alkyne probes, 15 min preincubation at 37°C, mean ± SD
[9] = 15 min preincubation at 37°C, mean ± SD
[10] = read-out: β-tryptase IC50, desthiobiotin probes, 15 min preincubation at 37°C, mean ± SD
[11] = read-out: Thrombin IC50, desthiobiotin probes, 15 min preincubation at 37°C, mean ± SD
[12] = read-out: uPA IC50, desthiobiotin probes, 15 min preincubation at 37°C, mean ± SD
[13] = read-out: Trypsin-3 IC50, desthiobiotin probes, 15 min preincubation at 37°C, mean ± SD
[14] = read-out: NE IC50, desthiobiotin probes, 15 min preincubation at 37°C, mean ± SD
[15] = read-out: CatG IC50, desthiobiotin probes, 15 min preincubation at 37°C, mean ± SD
[16] = read-out: ChTryp IC50, desthiobiotin probes, 15 min preincubation at 37°C, mean ± SD

T1 sequence (P20231 31-275): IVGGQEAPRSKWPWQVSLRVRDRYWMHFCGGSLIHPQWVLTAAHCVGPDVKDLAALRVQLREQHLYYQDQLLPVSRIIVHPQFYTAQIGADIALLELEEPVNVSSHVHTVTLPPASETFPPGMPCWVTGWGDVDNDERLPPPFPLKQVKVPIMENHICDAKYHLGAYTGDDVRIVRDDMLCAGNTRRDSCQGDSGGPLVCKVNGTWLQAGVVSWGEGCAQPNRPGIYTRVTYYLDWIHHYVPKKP

SMILES	IC50 [1] [µM]	IC50 [2] [µM]	IC50 [3] [µM]	IC50 [4] [µM]	IC50 [5] [µM]	IC50 [6] [µM]	IC50 [7] [µM]	other results
C#CCCCOC(=O)NC(CCCN)P(=O)(Oc1ccccc1)Oc1ccccc1.O=C(O)C(F)(F)F (centres unmarked) [14b]	> 10	> 10	> 10	> 10	> 10	> 10	> 10	β-tryptase IC50 [1, 8]: inactive; Thrombin IC50 [2, 8]: inactive; uPA IC50 [3, 8]: inactive; Trypsin-3 IC50 [4, 9]: inactive; NE IC50 [5, 9]: inactive; CatG IC50 [6, 9]: inactive; ChTryp IC50 [7, 9]: inactive
C#CCCCOC(=O)NC(Cc1ccc(N)cc1)P(=O)(Oc1ccccc1)Oc1ccccc1 (centres unmarked) [16b]	> 10	> 10	> 10	6.85 ± 0.8	> 10	3.74 ± 0.27	2.67 ± 0.57	–
C#CCCCOC(=O)NC(Cc1ccc(N)cc1)P(=O)(Oc1ccc(NC(C)=O)cc1)Oc1ccc(NC(C)=O)cc1 (centres unmarked) [17b]	> 10	2.97 ± 0.07	> 10	3.71 ± 0.71	> 10	0.37 ± 0.008	0.49 ± 0.28	CatG IC50 [6, 9]: submicromolar; ChTryp IC50 [7, 9]: submicromolar
C#CCCCOC(=O)NC(Cc1ccc(N)cc1)P(=O)(Oc1ccc(Cl)cc1)Oc1ccc(Cl)cc1 (centres unmarked) [18b]	> 10	7.88 ± 0.61	6.38 ± 0.52	1.72 ± 0.19	> 10	0.36 ± 0.01	0.19 ± 0.14	CatG IC50 [6, 9]: submicromolar; ChTryp IC50 [7, 9]: submicromolar
C#CCCCOC(=O)NC(c1ccc(N)cc1)P(=O)(Oc1ccccc1)Oc1ccccc1 (centres unmarked) [19b]	> 10	6.59 ± 3.9	> 10	9.06 ± 1.1	> 10	> 10	8.52 ± 1.81	–
C#CCCCOC(=O)NC(c1ccc(N)cc1)P(=O)(Oc1ccc(NC(C)=O)cc1)Oc1ccc(NC(C)=O)cc1 (centres unmarked) [20b]	> 10	–	> 10	–	–	> 10	–	–
C#CCCCOC(=O)NC(c1ccc(N)cc1)P(=O)(Oc1ccc(Cl)cc1)Oc1ccc(Cl)cc1 (centres unmarked) [21b]	> 10	–	> 10	–	–	> 10	–	–
C#CCCCOC(=O)NC(Cc1ccc(CN)cc1)P(=O)(Oc1ccccc1)Oc1ccccc1 (centres unmarked) [22b]	> 10	> 10	2.3 ± 0.1	3.82 ± 0.19	> 10	5.26 ± 0.68	> 10	–
C#CCCCOC(=O)NC(C1CCNCC1)P(=O)(Oc1ccccc1)Oc1ccccc1 (centres unmarked) [23b]	> 10	> 10	> 10	> 10	> 10	> 10	> 10	–
C#CCCCOC(=O)NC(CCCCN)P(=O)(Oc1ccccc1)Oc1ccccc1.O=C(O)C(F)(F)F (centres unmarked) [29b]	3.96 ± 0.5	7.36 ± 0.25	5.27 ± 0.15	0.07 ± 0.02	> 10	> 10	5.87 ± 3.39	Trypsin-3 IC50 [4, 9]: nanomolar inhibition
C#CCCCOC(=O)NC(CCCCN)P(=O)(Oc1ccc(NC(=O)OC)cc1)Oc1ccc(NC(=O)OC)cc1 (centres unmarked) [30b]	0.68 ± 0.05	1.18 ± 0.07	2.44 ± 0.35	0.006 ± 0.0006	> 10	0.56 ± 0.002	> 10	Trypsin-3 IC50 [4, 9]: nanomolar inhibition
C#CCCCOC(=O)NC(Cc1ccc(CNC(=N)N)cc1)P(=O)(Oc1ccccc1)Oc1ccccc1 (centres unmarked) [40b]	> 10	> 10	> 10	> 10	> 10	6.16 ± 0.48	> 10	–
C[C@@H]1NC(=O)N[C@@H]1CCCCCC(=O)NCCOCCOCCOCCn1cc(CCCOC(=O)NC(CCCCN)P(=O)(Oc2ccccc2)Oc2ccccc2)nn1 (some centres unmarked) [47b]	–	–	–	–	–	–	–	IC50 [1, 10]: 2.49 ± 0.19 µM; IC50 [2, 11]: 3.55 ± 0.17 µM; IC50 [3, 12]: 4.62 ± 0.17 µM; IC50 [4, 13]: 0.52 ± 0.24 µM; IC50 [5, 14]: > 10 µM; IC50 [6, 15]: > 10 µM; IC50 [7, 16]: > 10 µM
CC(=O)Nc1ccc(OP(=O)(Oc2ccc(NC(C)=O)cc2)C(CCCCN)NC(=O)OCCCc2cn(CCOCCOCCOCCNC(=O)CCCCC[C@H]3NC(=O)N[C@H]3C)nn2)cc1 (stereo partly drawn) [49b, 3-(1-(18-((4R,5S)-5-methyl-2-oxoimidazolidin-4-yl)-13-oxo-3,6,9-trioxa-12-azaoctadecyl)-1H-1,2,3-triazol-4-yl)propyl (5-amino-1-(bis(4-acetamidophenoxy)phosphoryl)pentyl)carbamate trifluoroacetate salt]	–	–	–	–	–	–	–	IC50 [1, 10]: 1.11 ± 0.05 µM; IC50 [2, 11]: 1.18 ± 0.04 µM; IC50 [3, 12]: 6.75 ± 0.52 µM; IC50 [4, 13]: 0.09 ± 0.005 µM; IC50 [5, 14]: > 10 µM; IC50 [6, 15]: 4.47 ± 0.51 µM; IC50 [7, 16]: > 10 µM
C#CCCCOC(=O)NC(Cc1ccccc1)P(=O)(Oc1ccccc1)Oc1ccccc1 (centres unmarked) [compound 12]	> 10	> 10	> 10	> 10	> 10	> 10	1.54 ± 1.34	–
C#CCCCOC(=O)NC(C(C)C)P(=O)(Oc1ccccc1)Oc1ccccc1 (centres unmarked) [compound 13]	> 10	> 10	> 10	> 10	> 10	> 10	> 10	NE IC50 [5, 9]: not potent
C[C@@H]1NC(=O)N[C@@H]1CCCCCC(=O)NCCOCCOCCOCCn1cc(CCCOC(=O)NC(Cc2ccccc2)P(=O)(Oc2ccccc2)Oc2ccccc2)nn1 (some centres unmarked) [compound 42]	> 10	> 10	> 10	> 10	> 10	3.23 ± 0.29	2.07 ± 0.85	–
